Assay results reported in patent publication US9051342B2 (priority 2004, dated 2015).
Where “and” joins values, the source holds several entries; their conditions need not be identical. Identical values can stand only once.

| SMILES | melting point |
| --- | --- |
| O=C(O)c1cccc(-n2cc(-c3ccc(O)cc3)cn2)c1 [Compound 100, 3-[4-(4-Hydroxy-phenyl)-pyrazol-1-yl]-benzoic acid] | 282 to 284 °C |
| O=C(O)c1ccc(-c2ccn(-c3ccccc3F)c2)cc1 [Compound 151, 4-[1-(2-Fluoro-phenyl)-1H-pyrrol-3-yl]-benzoic acid] | 202 to 204 °C |
| COc1ccc(-n2cc(-c3cccc(C(=O)O)c3)cn2)cc1 [Compound 97] | 225 to 227 °C and 223 to 225 °C |
| O=C(O)c1cccc(-n2cc3c(n2)-c2cccc(OC(F)F)c2C3)c1 [Compound 185, 3-(5-Difluoromethoxy-4H-indeno[1,2-c]pyrazol-2-yl)-benzoic acid] | 240 to 241 °C |
| COc1cccc(-n2cc(-c3ccc(C(=O)O)cc3)cn2)c1 [Compound 171, 4-[1-(3-Methoxy-phenyl)-1H-pyrazol-4-yl]-benzoic acid] | 211 to 212 °C |
| O=C(O)c1cccc(-n2ccc(-c3ccc(Cl)cc3)n2)c1 [Compound 80, 3-[3-(4-Chloro-phenyl)-pyrazol-1-yl]-benzoic acid] | 230 to 235 °C |
| O=C(O)c1cccc(-c2cnn(-c3ccc(Cl)cc3)c2)c1 [Compound 83, 3-[1-(4-Chloro-phenyl)-1H-pyrazol-4-yl]-benzoic acid] | 205 to 206 °C |
| O=C(O)c1cccc(-c2ncn(-c3ccc(C(F)(F)F)cc3)n2)c1 [Compound 18, 3-[1-(4-Trifluoromethyl-phenyl)-1H-[1,2,4]triazol-3-yl]-benzoic acid] | 141 to 143 °C |
| N#Cc1cccc(-c2ccn(-c3ccccc3)n2)c1 [Compound 57, 3-(1-Phenyl-1H-pyrazol-3-yl)-benzonitrile] | 78 to 80 °C |
| COc1ccc2c(c1)CCc1cn(-c3cccc(C(=O)O)c3)nc1-2 [Compound 142, 3-(7-Methoxy-4,5-dihydro-benzo[g]indazol-2-yl)-benzoic acid] | 217 to 218 °C |
| O=C(O)c1cccc(-n2cc(-c3cnccn3)cn2)c1 [Compound 119, 3-(4-Pyrazin-2-yl-pyrazol-1-yl)-benzoic acid] | 310 to 311 °C |
| COc1ccc2c(c1)Cc1cn(-c3cccc(C(=O)O)c3)nc1-2 [Compound 139, 3-(6-Methoxy-4H-indeno[1,2-c]pyrazol-2-yl)-benzoic acid] | 272 to 273 °C |
| COc1ccc2c(c1)-c1nn(-c3cccc(C(=O)O)c3)cc1CC2 [Compound 143, 3-(8-Methoxy-4,5-dihydro-benzo[g]indazol-2-yl)-benzoic acid] | 192 to 193 °C |
| O=C(O)c1ccc(-n2cc(-c3ccc(F)cc3F)cn2)cc1 [Compound 104, 4-[4-(2,4-Difluoro-phenyl)-pyrazol-1-yl]-benzoic acid] | 291 to 293 °C |
| COc1cccc2c1CCc1cn(-c3cccc(C(=O)O)c3)nc1-2 [Compound 147, 3-(6-Methoxy-4,5-dihydro-benzo[g]indazol-2-yl)-benzoic acid] | 232 to 233 °C |
| Cc1ccc(-n2cc(-c3cccc(C(=O)O)c3)cn2)cc1 [Compound 177, 3-(1-p-Tolyl-1H-pyrazol-4-yl)-benzoic acid] | 229 to 231 °C |
| O=C(O)c1cccc(-n2cc(-c3ccc(Cl)cc3)cn2)c1 [Compound 49, 3-[4-(4-Chloro-phenyl)-pyrazol-1-yl]-benzoic acid] | 253 to 254 °C |
| O=C(O)c1cccc(-c2cnn(-c3cccc(OC(F)F)c3)c2)c1 [Compound 172] | 179 to 181 °C |
| Cc1ccc(-n2cc(-c3ccc(C(=O)O)cc3)cn2)cc1 [Compound 178, 4-(1-p-Tolyl-1H-pyrazol-4-yl)-benzoic acid] | 280 to 282 °C |
| COc1ccc2c(c1)-c1nn(-c3ccc(C(=O)O)cc3)cc1C2 [Compound 149, 4-(7-Methoxy-4H-indeno[1,2-c]pyrazol-2-yl)-benzoic acid] | 304 to 306 °C |
| O=C(O)c1ccc(-c2ccn(-c3ccc(OC(F)(F)F)cc3)c2)cc1 [Compound 131, 4-[1-(4-Trifluoromethoxy-phenyl)-1H-pyrrol-3-yl]-benzoic acid] | 318 to 320 °C |
| O=C(O)c1cccc(-n2cc(-c3cccc(Br)c3)cn2)c1 [Compound 88, 3-[4-(3-Bromo-phenyl)-pyrazol-1-yl]-benzoic acid] | 177 to 178 °C |
| O=C(O)c1ccc(-c2cnn(-c3cccc(OC(F)F)c3)c2)cc1 [Compound 173] | 255 to 257 °C |
| Cc1ccccc1-n1nc(-c2cccc(C(=O)O)c2)[nH]c1=O [Compound 41, 3-(5-Oxo-1-o-tolyl-4,5-dihydro-1H-[1,2,4]triazol-3-yl)-benzoic acid] | > 310 °C |
| O=C(O)c1cccc(-c2ncn(-c3ccc([N+](=O)[O-])cc3)n2)c1 [Compound 23, 3-[1-(4-Nitro-phenyl)-1H-[1,2,4]triazol-3-yl]-benzoic acid] | 284 to 286 °C |
| O=C(O)c1cccc(-n2cnc(-c3ccccc3)n2)c1 [Compound 8, 3-(3-Phenyl-[1,2,4]triazol-1-yl)-benzoic acid] | 268 to 271 °C |
| COc1ccc(-c2cnn(-c3ccc(C(=O)O)cc3)c2)cc1 [Compound 50, 4-[4-(4-Methoxy-phenyl)-pyrazol-1-yl]-benzoic acid] | 289 to 290 °C |
| O=C(O)c1cccc(-c2ccn(-c3cccc(C(=O)O)c3)n2)c1 [Compound 69, 1,3-Bis(3-carboxyphenyl)-1H-pyrazole] | > 300 °C |
| COc1ccc(-c2ncn(-c3cccc(C(=O)O)c3)n2)cc1 [Compound 11, 3-[3-(4-Methoxy-phenyl)-[1,2,4]triazol-1-yl]-benzoic acid] | 268 to 270 °C |

More lines, now with the values ahead:

| melting point | SMILES |
| --- | --- |
| 221 to 223 °C | O=C(O)c1cccc(-c2cnn(-c3ccc4c(c3)OCO4)c2)c1 [Compound 239, 3-(1-Benzo[1,3]dioxol-5-yl-1H-pyrazol-4-yl)-benzoic acid] |
| 277 to 278 °C | O=C(O)c1ccc(-n2cc3c(n2)-c2cccc(OC(F)F)c2C3)cc1 [Compound 188, 4-(5-Difluoromethoxy-4H-indeno[1,2-c]pyrazol-2-yl)-benzoic acid] |
| 294 to 295 °C | COc1ccc(-c2cn(-c3ccc(C(=O)O)cc3)nn2)cc1 [Compound 203, 4-[4-(4-Methoxy-phenyl)-[1,2,3]triazol-1-yl]-benzoic acid] |
| 265 to 266 °C | O=C(O)c1ccc(-n2cc(-c3cccc4ccccc34)nn2)cc1 [Compound 271, 4-(4-Naphthalen-1-yl-[1,2,3]triazol-1-yl)-benzoic acid] |
| 271 to 273 °C | O=C(O)c1ccc(-c2cnn(-c3ccc(C(F)(F)F)cc3)c2)cc1 [Compound 236, 4-[1-(4-Trifluoromethyl-phenyl)-1H-pyrazol-4-yl]-benzoic acid] |
| 310 to 311 °C | CCOc1ccc(-c2cn(-c3ccc(C(=O)O)cc3)nn2)cc1 [Compound 273, 4-[4-(4-Ethoxy-phenyl)-[1,2,3]triazol-1-yl]-benzoic acid] |
| 311 to 313 °C | COc1cccc2c1Cc1cn(-c3ccc(C(=O)O)cc3)nc1-2 [Compound 187, 4-(5-Methoxy-4H-indeno[1,2-c]pyrazol-2-yl)-benzoic acid] |
| 215 to 218 °C | O=C(O)c1ccc(-c2ccn(-c3cc(F)ccc3F)c2)cc1 [Compound 245, 4-[1-(2,5-Difluoro-phenyl)-1H-pyrrol-3-yl]-benzoic acid] |
| 268 to 270 °C | COc1ccc(-c2ccn(-c3ccc(C(=O)O)cc3)n2)cc1 [Compound 219, 4-[3-(4-Methoxy-phenyl)-pyrazol-1-yl]-benzoic acid] |
| 313 to 314 °C | O=C(O)c1ccc(-n2cc(-c3ccc(Cl)cc3)nn2)cc1 [Compound 269, 4-[4-(4-Chloro-phenyl)-[1,2,3]triazol-1-yl]-benzoic acid] |
| 259 to 261 °C | O=C(O)c1ccc(-c2cnn(-c3ccc(Cl)cc3)c2)cc1 [Compound 234, 4-[1-(4-Chloro-phenyl)-1H-pyrazol-4-yl]-benzoic acid] |
| 199 to 201 °C | O=C(O)c1ccc(-c2ccn(-c3cccc(Cl)c3)c2)cc1 [Compound 243, 4-[1-(3-Chloro-phenyl)-1H-pyrrol-3-yl]-benzoic acid] |
| 244 to 245 °C | CC(C)c1ccc(-c2ccn(-c3cccc(C(=O)O)c3)c2)cc1 [Compound 287] |
| 272 to 274 °C | O=C(O)c1cccc(-n2cc(-c3cccc(O)c3)cn2)c1 [Compound 207, 3-[4-(3-Hydroxy-phenyl)-pyrazol-1-yl]-benzoic acid] |
| 176 to 179 °C | CC(C)c1ccc(-c2nn(-c3ccc(C(=O)O)cc3)c(=S)s2)cc1 [Compound 282, 4-[5-(4-Isopropyl-phenyl)-2-thioxo-[1,3,4]thiadiazol-3-yl]-benzoic acid] |
| > 350 °C | O=C(O)c1ccc(-c2ccn(-c3ccc(Cl)cc3)c2)cc1 [Compound 196, 4-[1-(4-Chloro-phenyl)-1H-pyrrol-3-yl]-benzoic acid] |
| 252 to 253 °C | COc1ccc(-n2ccc(-c3ccc(C(=O)O)cc3)n2)cc1 [Compound 217, 4-[1-(4-Methoxy-phenyl)-1H-pyrazol-3-yl]-benzoic acid] |
| 212 to 215 °C | CC(C)c1ccc(-n2cc(-c3cccc(C(=O)O)c3)cn2)cc1 [Compound 228, 3-[1-(4-Isopropyl-phenyl)-1H-pyrazol-4-yl]-benzoic acid] |
| 225 to 227 °C | O=C(O)c1ccc(-n2cc(-c3cccc(OC(F)(F)F)c3)cn2)cc1 [Compound 208, 4-[4-(3-Trifluoromethoxy-phenyl)-pyrazol-1-yl]-benzoic acid] |
| 239 to 241 °C | COc1ccc2c(c1)-c1cn(-c3cccc(C(=O)O)c3)nc1CC2 [Compound 253, 3-(8-Methoxy-4,5-dihydro-benzo[e]indazol-2-yl)-benzoic acid] |
| 286 to 289 °C | O=C(O)c1ccc(-c2cnn(-c3ccc(Cl)c(Cl)c3)c2)cc1 [Compound 233, 4-[1-(3,4-Dichloro-phenyl)-1H-pyrazol-4-yl]-benzoic acid] |
| 164 to 165 °C | O=C(O)c1cccc(-n2cc(-c3cccc(Oc4ccccc4)c3)cn2)c1 [Compound 216, 3-[4-(3-Phenoxy-phenyl)-pyrazol-1-yl]-benzoic acid] |
